Substitutions are numbered along the chain they refer to.
Tests used:
[1] = target: T1, peroxisome proliferator-activated receptor α (PPARα) (Homo sapiens, UniProt Q07869, T283A); test: microscale thermophoresis with purified recombinant EGFP-PPARα LBD T283A; type: binding
T1 construct: gene PPARA
T1 sequence (Q07869 200-468 T283A): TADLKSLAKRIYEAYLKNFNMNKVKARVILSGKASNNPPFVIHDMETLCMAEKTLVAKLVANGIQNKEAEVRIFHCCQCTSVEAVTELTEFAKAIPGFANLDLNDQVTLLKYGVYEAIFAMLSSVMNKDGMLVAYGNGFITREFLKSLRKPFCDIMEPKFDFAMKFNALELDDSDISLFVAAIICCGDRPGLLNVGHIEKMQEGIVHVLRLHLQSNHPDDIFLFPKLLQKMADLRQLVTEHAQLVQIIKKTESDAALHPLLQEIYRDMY

[2] = target: T2, peroxisome proliferator-activated receptor α (PPARα) (Homo sapiens, UniProt Q07869); test: microscale thermophoresis with purified recombinant EGFP-PPARα LBD; type: binding
T2 construct: gene PPARA
T2 sequence (Q07869 200-468): T1 sequence (Q07869 200-468 T283A) with A84T

`Cc1cccc2c3c(ccc12)C1=C(C(=O)C3=O)[C@@H](C)CO1` [DhT, dihydrotanshinone I] gave a Kd [1] of 32.9 ± 6.1 µM and a Kd [2] of 1.66 ± 0.5 µM.

— paper PMC11727260, “Free Cholesterol‐Induced Liver Injury in Non‐Alcoholic Fatty Liver Disease: Mechanisms and a Therapeutic Intervention Using Dihydrotanshinone I” (Advanced Science, 2024)
